{"source": "patent US7927600B2", "about": "“Anti-allergic pharmaceutical composition containing at least one allergen and at least one antihistamine compound” (priority 2001, dated 2011)", "tested_on": "allergic patients", "assay": "Example 4: adverse effects", "assay_type": "in vivo, human", "settings": "patients of Example 4", "data": [{"smiles": "CCOc1c(N)c2c(c(OCC)c1OCC)C(C1c3c(cc4c(c3OC)OCO4)CCN1C)OC2=O", "note": "(stereo not shown) [Hypostamine, tritoqualine]", "values": [{"measurement": "Adverse Effects, Conclusion (frequency)", "value": "Very rare"}]}]}
